# In patent US20010018445A1, “Pharmaceutical composition for the treatment of hepatocellular carcinoma” (TTY BIOPHARM COMPANY LIMITED, priority 2000, published 2001):
# What was measured:
# [1] = in water, methanol, ethanol or acetone; cited from earlier work
# [2] = tested on: hepatocellular carcinoma; test: Clinical observation of thalidomide in hepatocellular carcinoma, summary statement on side effects; assay type: in vivo, human; conditions: patients with metastatic hepatocellular carcinoma or where local treatment has failed
# Description: The subject invention utilizes thalidomide to treat metastatic hepatocellular carcinoma and hepatocellular carcinoma, where local treatment has failed.
# The therapeutic efficacy of the pharmaceutical composition of the subject invention comprising thalidomide on the treatment of hepatocellular carcinoma has been supported by clinical observation as illustrated in the following examples.
# [3] = tested on: tumor necrotic factor-alpha (TNF-I); conditions: Journal of Infectious Diseases, 1993, 168, p. 408-414; cited from earlier work
# [4] = women who took thalidomide in the first trimester of pregnancy; cited from earlier work
# [5] = tested on: hepatocellular carcinoma; test: Thalidomide treatment of two patients with metastatic and locally advanced hepatocellular carcinoma (Example 3); assay type: in vivo, human; conditions: thalidomide 100 mg twice daily
# Protocol: Thalidomide was administered 100 mg twice daily. They were subjected to serum alpha-fetoprotein test every 2-4 weeks and computed tomography or magnetic resonance image examination every 4-8 weeks.
# [6] = tested on: hepatocellular carcinoma; assay type: in vivo, human
# Protocol: FIGS. 1-4 show computerized abdominal tomography of a patient, before and after, treatment with thalidomide. […] The serum level of alpha-fetoprotein in the patient is 4335 μg/ml. […] The massive type index lesion at the left hepatic lobe shown in FIG. 3 has been reduced to the size of 3 cm×3 cm. The serum level of alpha-fetoprotein in the patient is 1501 μg/ml. In addition, the scan show the occurrence of ascitic fluid.
# A patient weighted 55 kg with medical history of hepatitis C was diagnosed with hepatocellular carcinoma in December 1998 and treated with transcatheter arterial chemoembolization. They were treated with transcatheter arterial chemoembolization again in March and June 1999. According to the computerized abdominal tomography and gastrointestinal track barium enema, hepatocellular carcinoma invasion of the right colon and duodenum was doubted. The patient was treated with radiation on the right liver lobe during July to September 1999. After one-month of treatment, the serum level of alpha-fetoprotein in the patient increased from 105 μg/ml, before treatment, to 535 μg/ml. […] The patient was treated with a forth transcatheter arterial chemoembolization. The serum level of alpha-fetoprotein in the patient was increased to 1572 μg/ml.
# The serum level of alpha-fetoprotein in the patient was up to 4335 μg/ml. The liver function exacerbated that the total bilirubin was […], GOT/GPT was 253/115 IU and alkaline phosphase (ALP) was 239 unit/l. […] A capsule containing 100 mg of thalidomide was orally administered to the patient twice daily during the thalidomide treatment. […] However, ascitic fluid was found. The abdominal paracentesis evidenced that ascitic fluid was caused by spontaneous bacterial peritonitis. […] The patient was then administered with antibiotics for the treatment of spontaneous bacterial peritonitis. The patient was still treated with thalidomide to the present.
# [7] = tested on: angiogenesis; conditions: U.S. Pat. Nos. 5,593,990 and 5,629,327; cited from earlier work
# [8] = tested on: basic fibroblast growth factor-induced angiogenesis; conditions: Anti-Cancer Drugs, 1996, 7, p.339-343; cited from earlier work
# [9] = after treatment with thalidomide
compound,measurement,setting,value
"O=C1CCC(N2C(=O)c3ccccc3C2=O)C(=O)N1 (stereo not shown) [thalidomide, 2-(2,6-dioxo-3-piperidinyl)-1H-isoindolle-1,3(2H)-dione]",solubility,[1],sparingly soluble
same,"side effects, such as arrest of bone marrow or hepatotoxicity",[2],without significant side effects
same,inhibition of tumor necrotic factor-alpha (TNF-I),[3],could effectively inhibit
same,teratogenic effect,[4],"would deliver terata, such as phocomelia"
same,serum alpha-fetoprotein level (FIGS. 6 and 7),[5],significant reduced
same,hepatocellular carcinoma of the two liver lobes on follow-up MRI,[6]; after four weeks of treatment,significantly remitted
same,most diffused hepatocellular carcinoma infiltrating left and right hepatic lobes (computerized abdominal tomography),[6]; [9],disappear
same,variation of the serum level of alpha-fetoprotein (FIG. 5),[6]; [9],significantly decreased
same,right upper quadrant tenderness,"[6]; after two weeks of treatment, 100 mg orally twice daily",significantly relieved
same,alkaline phosphase (ALP),"[6]; human, in vivo",233 unit/l
same,serum level of alpha-fetoprotein,"[6]; one patient, 100 mg thalidomide capsule orally twice daily, after four weeks, 4335 μg/ml before treatment",1501 µg/mL
same,inhibition of angiogenesis,[7],could effectively inhibit
same,inhibition of basic fibroblast growth factor-induced angiogenesis,[8],could effectively inhibit
